Laboratory results as given in ChEMBL document CHEMBL5233288, “Ginkgo Biflavones Cause p53 Wild-Type Dependent Cell Death in a Transcription-Independent Manner of p53” (J Nat Prod, 2023).
Calls of active or inactive are those of the source. The calls are words filed in the database; no cut-off is given here.

Assays:
HCT-116 [1] = assay: Upregulation of phosphorylated p53 expression in human HCT-116 cells expressing wild type p53 at 20 uM incubated for 24 hrs by western blot analysis; type: functional, cell-based
HCT-116 [2] = assay: Upregulation of acetylated p53 protein expression in human HCT-116 cells expressing wild type p53 at 20 uM incubated for 24 hrs by western blot analysis; type: functional, cell-based
HCT-116 [3] = assay: Induction of cell cycle arrest in human HCT-116 cells expressing wild type p53 assessed as accumulation of cells at G2 phase at 5 uM incubated for 24 hrs by PI staining based flow cytometry (reference value: 30.7 to 31.5%); type: functional
HCT-116 [4] = assay: Cytotoxicity against human HCT-116 cells assessed as reduction in cell viability at 10 uM incubated for 72 hrs in presence of ferroptosis inhibitor, ferrostatin-1 by resazurin-based analysis; type: functional
RKO = assay: Cytotoxicity against human RKO cells expressing wild type p53 assessed as induction of cell death at 20 uM incubated for 72 hrs by resazurin based analysis; type: functional
HCT-116 [5] = assay: Upregulation of p53 protein expression in human HCT-116 cells at 10 uM incubated for 24 hrs by western blot analysis; type: functional, cell-based
[6] = target: Cellular tumor antigen p53 (Homo sapiens) (UniProt P04637); assay: Inhibition of p53 transcriptional activity in human HCT-116 cells assessed as inhibition of protein binding to p21 DNA promoter region at 20 uM incubated for 24 hrs by ChIP analysis; type: cell-based
HCT-116 [7] = assay: Induction of apoptosis in human HCT-116 cells expressing wild type p53 assessed as early apoptotic cells at 20 uM incubated for 48 hrs by Annexin V-FITC/PI staining based flow cytometry (reference value: 12%); type: functional
HCT-116 [8] = assay: Cytotoxicity against human HCT-116 cells expressing wild type p53 assessed as induction of cell death at 20 uM incubated for 72 hrs by resazurin based analysis; type: functional
HCT-116 [9] = assay: Cytotoxicity against human HCT-116 cells deficit of p53 expression assessed as induction of cell death at 20 uM incubated for 72 hrs by resazurin based analysis; type: functional
HCT-116 [10] = assay: Increase in mitochondrial complex III activity in human HCT-116 cells at 20 uM incubated for 24 hrs; type: functional, cell-based
LoVo = assay: Cytotoxicity against human LoVo cells expressing wild type p53 assessed as induction of cell death at 20 uM incubated for 72 hrs by resazurin based analysis; type: functional
HCT-116 [11] = assay: Downregulation of MDM2 protein expression in human HCT-116 cells at 10 uM incubated for 24 hrs in presence of 10 uM 5-FU by western blot analysis; type: functional, cell-based
HCT-116 [12] = assay: Potentiation of 5-FU-induced antitumor activity against human HCT-116 cells xenografted in BALB/c nude mouse assessed as reduction in tumor weight at 10 mg/kg, ip qd for 12 days and administered with 5-FU at 30 mg/kg, ip once every 3 days for 12 days; type: functional, organism-based; details: time 12.0 day
HCT-116 [13] = assay: Antitumor activity against human HCT-116 cells xenografted in BALB/c nude mouse assessed as reduction in tumor weight at 10 mg/kg, ip qd for 12 days; type: functional, organism-based; details: time 12.0 day
HCT-116 [14] = assay: Potentiation of 5-FU-induced antitumor activity against human HCT-116 cells xenografted in BALB/c nude mouse assessed as reduction in tumor volume at 10 mg/kg, ip qd for 12 days and administered with 5-FU at 30 mg/kg, ip once every 3 days for 12 days and measured every 2 days; type: functional, organism-based; details: time 12.0 day
[15] = Toxicity against BALB/c nude mouse xenografted with human HCT-116 cells assessed as body weight loss at 10 mg/kg, ip qd for 12 days and measured every 2 days; type: organism-based; details: in vivo, 288 h, time 12 day
HCT-116 [16] = assay: Antitumor activity against human HCT-116 cells xenografted in BALB/c nude mouse assessed as reduction in tumor volume at 10 mg/kg, ip qd for 12 days and measured every 2 days; type: functional, organism-based; details: time 12.0 day
[17] = Toxicity against BALB/c nude mouse xenografted with human HCT-116 cells assessed as body weight loss at 10 mg/kg, ip qd for 12 days and administered with 5-FU at 30 mg/kg, ip once every 3 days for 12 days and measured every 2 days; type: organism-based; details: in vivo, 288 h, time 12 day

Sequence of Cellular tumor antigen p53 (Homo sapiens) (P04637 whole entry, looked up): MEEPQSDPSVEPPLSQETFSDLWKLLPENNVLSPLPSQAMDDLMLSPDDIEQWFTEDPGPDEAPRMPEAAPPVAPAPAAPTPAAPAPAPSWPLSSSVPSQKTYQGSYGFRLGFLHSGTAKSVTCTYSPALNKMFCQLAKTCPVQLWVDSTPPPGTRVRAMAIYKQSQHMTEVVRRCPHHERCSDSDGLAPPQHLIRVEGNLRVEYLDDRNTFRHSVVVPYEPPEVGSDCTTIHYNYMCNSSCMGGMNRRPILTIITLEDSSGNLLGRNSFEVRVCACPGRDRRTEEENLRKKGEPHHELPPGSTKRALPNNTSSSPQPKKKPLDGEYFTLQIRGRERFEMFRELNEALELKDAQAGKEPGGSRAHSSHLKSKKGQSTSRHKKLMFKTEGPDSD

| inhibition [6] | Structure (SMILES) | Activity (HCT-116 [1]) | Activity (HCT-116 [2]) | Activity (HCT-116 [3]) | Activity (HCT-116 [4]) | Activity (RKO) | Activity (HCT-116 [5]) | Activity (HCT-116 [7]) | Activity (HCT-116 [8]) | Activity (HCT-116 [9]) | Activity (HCT-116 [10]) | Activity (LoVo) | inhibition (HCT-116 [11]) | Activity (HCT-116 [12]) | Activity (HCT-116 [13]) | Activity (HCT-116 [14]) | Activity [15] | Activity (HCT-116 [16]) | Activity [17] |
| --- | --- | --- | --- | --- | --- | --- | --- | --- | --- | --- | --- | --- | --- | --- | --- | --- | --- | --- | --- |
| Active | COc1ccc(-c2cc(=O)c3c(O)cc(O)cc3o2)cc1-c1c(O)cc(O)c2c(=O)cc(-c3ccc(O)cc3)oc12 [BILOBETIN] | Active | Active | 32.7% | inactive | Active | Active | 39.9% | Active | inactive | Active | Active | Active |  |  |  |  |  |  |
| Active | COc1cc(O)c2c(=O)cc(-c3ccc(OC)c(-c4c(O)cc(O)c5c(=O)cc(-c6ccc(O)cc6)oc45)c3)oc2c1 [GINKGETIN] | Active | Active | 39.2% | inactive | Active | Active | 33.6% | Active | inactive | Active | Active | Active | Active | Active | Active | Non-Toxic | Active | Non-Toxic |
| Active | COc1ccc(-c2cc(=O)c3c(O)cc(O)c(-c4cc(-c5cc(=O)c6c(O)cc(O)cc6o5)ccc4OC)c3o2)cc1 [ISOGINKGETIN] | Active | Active | 36.7% | inactive | Active | Active | 40.6% | Active | inactive | Active | Active | Active |  |  |  |  |  |  |
